These results are taken from PubChem BioAssay AID328 (DTP/NCI, 2004).

The test system of this experiment is BDF1 mice, P388 leukemia ip, median survival T/C. In words: NCI In Vivo Anticancer Drug Screen. Data for tumor model P388 Leukemia (intraperitoneal) in B6D2F1 (BDF1) mice. To be noted: endpoint: median survival time, higher = longer survival. In short, it runs like this: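 Steps: implant the tumour, treat one group with compound and another with vehicle, record survival, then divide treated by control.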

Where [1] appears, read: dose: 50.0 mg/kg/injection, schedule: Q01DX009 (ip), vehicle: saline with Tween-80.
The mark [2] stands for this setting: dose: 100.0 mg/kg/injection, schedule: Q01DX009 (ip), vehicle: saline with Tween-80.
Where [3] appears, read: dose: 200.0 mg/kg/injection, schedule: Q01DX009 (ip), vehicle: saline with Tween-80.
The mark [4] stands for this setting: dose: 100.0 mg/kg/injection, schedule: Q04DX003 (ip), vehicle: Klucel (hydroxypropylcellulose) (HPC).
[5] abbreviates: dose: 100.0 mg/kg/injection, schedule: Q04DX003 (ip), vehicle: saline with Tween-80.
The mark [6] stands for this setting: dose: 200.0 mg/kg/injection, schedule: Q04DX003 (ip), vehicle: saline with Tween-80.
[7] abbreviates: dose: 400.0 mg/kg/injection, schedule: Q01DX009 (ip), vehicle: saline with Tween-80.
Setting [8] is: dose: 400.0 mg/kg/injection, schedule: Q04DX003 (ip), vehicle: saline with Tween-80.
Setting [9] is: dose: 100.0 mg/kg/injection, schedule: Q01DX001 (ip), vehicle: Klucel (hydroxypropylcellulose) (HPC).
Where [10] appears, read: dose: 200.0 mg/kg/injection, schedule: Q01DX001 (ip), vehicle: Klucel (hydroxypropylcellulose) (HPC).

Molecules are shown by their SMILES. “And” between values parts separate entries of the source, which are not always exact repeats. Equal values may be shown once. Inconclusive results and toxic doses are left out.

As for `CC[N+](CC)(CC)CCCCCCCCCC[N+](CC)(CC)CC`, the T/C reads like this: (dose: 0.25 mg/kg/injection, schedule: Q01DX009 (ip), vehicle: water) 91 % of control; (dose: 0.39 mg/kg/injection, schedule: Q04DX003 (ip), vehicle: water) 102 % of control and 107 % of control; (dose: 0.5 mg/kg/injection, schedule: Q01DX009 (ip), vehicle: water) 112 % of control; (dose: 0.5 mg/kg/injection, schedule: Q04DX003 (ip), vehicle: saline with Tween-80) 92 % of control; (dose: 0.78 mg/kg/injection, schedule: Q04DX003 (ip), vehicle: saline with Tween-80) 100 % of control; (dose: 0.78 mg/kg/injection, schedule: Q04DX003 (ip), vehicle: water) 98 % of control and 120 % of control. The T/C by setting is: (dose: 1.0 mg/kg/injection, schedule: Q01DX009 (ip), vehicle: water) 91 % of control and 105 % of control; (dose: 1.0 mg/kg/injection, schedule: Q04DX003 (ip), vehicle: saline with Tween-80) 92 % of control; (dose: 1.56 mg/kg/injection, schedule: Q04DX003 (ip), vehicle: water) 95 % of control and 104 % of control.
Regarding `CC(=O)OC1CC2(O)C(CCC3(C)C(c4ccc(=O)oc4)CCC32O)C2(C)CCC(OC3OC(CO)C(O)C(O)C3O)C=C12` (configuration not stated), the T/C (dose: 125.0 micrograms/kg/injection, schedule: Q01DX010 (ip), vehicle: saline) is 90 % of control.
Turning to `CC(=O)N(C)C=C1C(=O)N(C)C(=O)N(C)C1=O`, the T/C under setting [1] was 102 % of control, the T/C under setting [2] was 111 % of control and the T/C under setting [3] was 92 % of control.
Regarding `O=C1NC(=O)C2(CCCCC2)N1`, the T/C was 91 % of control (dose: 25.0 mg/kg/injection, schedule: Q01DX009 (ip), vehicle: Klucel (hydroxypropylcellulose) (HPC)); 90 % of control (dose: 25.0 mg/kg/injection, schedule: Q04DX003 (ip), vehicle: Klucel (hydroxypropylcellulose) (HPC)); 100 % of control (dose: 50.0 mg/kg/injection, schedule: Q01DX009 (ip), vehicle: Klucel (hydroxypropylcellulose) (HPC)); 100 % of control (dose: 50.0 mg/kg/injection, schedule: Q04DX003 (ip), vehicle: Klucel (hydroxypropylcellulose) (HPC)); 104 % of control under setting [4].
With `COc1cc2cc(Oc3ccc4ccc(=O)oc4c3)c(=O)oc2cc1O`, the T/C (dose: 3.12 mg/kg/injection, schedule: Q01DX009 (ip), vehicle: carboxymethylcellulose (CMC)) was 95 % of control; the T/C (dose: 6.25 mg/kg/injection, schedule: Q01DX009 (ip), vehicle: carboxymethylcellulose (CMC)) was 116 % of control; the T/C (dose: 6.25 mg/kg/injection, schedule: Q01DX009 (ip), vehicle: saline + alcohol) was 90 % of control; the T/C (dose: 12.5 mg/kg/injection, schedule: Q01DX009 (ip), vehicle: carboxymethylcellulose (CMC)) was 104 % of control; the T/C (dose: 12.5 mg/kg/injection, schedule: Q01DX009 (ip), vehicle: saline + alcohol) was 95 % of control; the T/C (dose: 25.0 mg/kg/injection, schedule: Q01DX009 (ip), vehicle: carboxymethylcellulose (CMC)) is 108 % of control. Besides, the T/C (dose: 25.0 mg/kg/injection, schedule: Q01DX009 (ip), vehicle: saline + alcohol) was 113 % of control.
For the compound `Nc1nc(=O)n(CC(=O)c2ccco2)cc1F`, the T/C was 109 % of control (dose: 50.0 mg/kg/injection, schedule: Q01DX009 (ip), vehicle: saline); 95 % of control and 100 % of control (dose: 100.0 mg/kg/injection, schedule: Q01DX009 (ip), vehicle: saline); 118 % of control (dose: 200.0 mg/kg/injection, schedule: Q01DX009 (ip), vehicle: saline).
For the compound `CC(=O)Nc1ccn(CC(=O)c2ccco2)c(=O)n1`, the T/C under setting [2] was 104 % of control; the T/C under setting [5] was 105 % of control; the T/C under setting [3] was 95 % of control; the T/C under setting [6] is 105 % of control; the T/C under setting [7] is 90 % of control; the T/C under setting [8] is 100 % of control.
For the compound `O=C1CC(SC(=S)C2CCCC2=O)C(=O)O1` (configuration not stated), the T/C under setting [1] was 122 % of control.
Consider `CCCCCCCCCCCCCCCCNC(=S)Nc1ccc(C(=O)O)cc1`, for which the T/C by setting is: (dose: 50.0 mg/kg/injection, schedule: Q01DX001 (ip), vehicle: Klucel (hydroxypropylcellulose) (HPC)) 113 % of control; under setting [9], 109 % of control; under setting [10], 100 % of control.
With `O=c1[nH]cc(N(CCCl)CCCl)c(=O)[nH]1`, the T/C is, setting by setting: (dose: 0.38 mg/kg/injection, schedule: Q01DX010 (ip), vehicle: saline) 218 % of control; (dose: 0.75 mg/kg/injection, schedule: Q01DX010 (ip), vehicle: saline) 300 % of control; (dose: 1.5 mg/kg/injection, schedule: Q01DX010 (ip), vehicle: saline) 204 % of control.
As to `O=C(CBr)c1ccc(I)cc1`, the T/C (dose: 13.0 mg/kg/injection, schedule: Q01DX010 (ip), vehicle: saline) was 109 % of control; the T/C (dose: 26.0 mg/kg/injection, schedule: Q01DX010 (ip), vehicle: saline) was 109 % of control; the T/C (dose: 43.0 mg/kg/injection, schedule: Q01DX010 (ip), vehicle: saline) is 90 % of control.
Turning to `CC(=O)O[C@@H]1[C@H]2O[C@H]2[C@H]2O[C@@]2(COC(=O)c2ccccc2)[C@H]1OC(C)=O`, the T/C (dose: 100.0 mg/kg/injection, schedule: Q01DX010 (ip), vehicle: steriod suspending solution) is 90 % of control; the T/C (dose: 200.0 mg/kg/injection, schedule: Q01DX010 (ip), vehicle: steriod suspending solution) is 90 % of control; the T/C (dose: 400.0 mg/kg/injection, schedule: Q01DX010 (ip), vehicle: steriod suspending solution) was 86 % of control.
On to `CCOC(=O)CCCl`, for which the T/C was 95 % of control under setting [9]; 100 % of control under setting [4]; 104 % of control under setting [10]; 104 % of control (dose: 200.0 mg/kg/injection, schedule: Q04DX003 (ip), vehicle: Klucel (hydroxypropylcellulose) (HPC)); 91 % of control (dose: 400.0 mg/kg/injection, schedule: Q01DX001 (ip), vehicle: Klucel (hydroxypropylcellulose) (HPC)); 100 % of control (dose: 400.0 mg/kg/injection, schedule: Q04DX003 (ip), vehicle: Klucel (hydroxypropylcellulose) (HPC)).
For the compound `C1OC1CO[C@@H]1CO[C@H]2[C@@H]1OC[C@H]2OCC1CO1` (some centres not stated), the T/C was 183 % of control (dose: 264.0 mg/kg/injection, schedule: Q04DX003 (ip), vehicle: saline with Tween-80) and 195 % of control under setting [8].
Consider `CCCCCCCSc1ncnc2nc[nH]c12`, for which the T/C under setting [2] was 100 % of control; the T/C under setting [5] was 86 % of control; the T/C under setting [3] was 86 % of control; the T/C under setting [6] is 95 % of control; the T/C under setting [7] was 109 % of control; the T/C under setting [8] was 100 % of control.
`CCCCCCCCCCCC1=NCCN1`: the T/C was 96 % of control (dose: 3.13 mg/kg/injection, schedule: Q01DX009 (ip), vehicle: saline with Tween-80); 100 % of control (dose: 6.25 mg/kg/injection, schedule: Q01DX009 (ip), vehicle: saline with Tween-80); 104 % of control (dose: 12.5 mg/kg/injection, schedule: Q01DX009 (ip), vehicle: saline with Tween-80); 96 % of control (dose: 12.5 mg/kg/injection, schedule: Q04DX003 (ip), vehicle: saline with Tween-80).
Regarding `CNCCNC`, the T/C reads like this: (dose: 50.0 mg/kg/injection, schedule: Q01DX005 (ip), vehicle: saline) 100 % of control; (dose: 100.0 mg/kg/injection, schedule: Q01DX005 (ip), vehicle: saline) 98 % of control; (dose: 200.0 mg/kg/injection, schedule: Q01DX005 (ip), vehicle: saline) 95 % of control.
For `CCCCOB(OCCCC)Oc1c(C(C)(C)C)cccc1C(C)(C)C`, the T/C was 100 % of control (dose: 100.0 mg/kg/injection, schedule: Q04DX003 (ip), vehicle: saline); 112 % of control (dose: 200.0 mg/kg/injection, schedule: Q04DX003 (ip), vehicle: saline); 108 % of control (dose: 400.0 mg/kg/injection, schedule: Q04DX003 (ip), vehicle: saline).
As for `c1ccc(CN2CCN(Cc3ccccc3)C2c2ccccc2)cc1`, the T/C is, setting by setting: (dose: 25.0 mg/kg/injection, schedule: Q01DX009 (ip), vehicle: saline with Tween-80) 103 % of control; under setting [1], 97 % of control; (dose: 50.0 mg/kg/injection, schedule: Q04DX003 (ip), vehicle: saline with Tween-80) 107 % of control; under setting [2], 97 % of control; under setting [5], 107 % of control; under setting [3], 104 % of control. For the same compound, the T/C under setting [6] is 103 % of control, the T/C under setting [7] was 106 % of control and the T/C under setting [8] was 96 % of control.
With `CCCCCCC1OCC2(CO1)COC(CCCCCC)OC2` (configuration not stated), the T/C is, setting by setting: under setting [5], 90 % of control; under setting [6], 86 % of control.
